Assay results published in US20160346202A1, “Composition for Vectorizing an Anti-Cancer Agent” (GUERBET, priority 2014, published 2016).

Legend:
[1] = Plasma kinetics of the anti-cancer agent after intra-arterial (TACE) injection, rat with N1-S1 tumor; assay type: in vivo, female Sprague-Dawley rats; conditions: female, Sprague-Dawley, rat N1-S1 model
Experimental: The tumor induction method described in Garin et al. (Lab Anim. 2005 July; 39(3): 314-20) was used on female Sprague-Dawley rats (supplier Dépré or Janvier, France), anesthetized beforehand.
6×10^6 N1-S1 rat hepatocellular carcinoma tumor cells (deposited at ATCC under the reference CRLL-1604™, also called Novikoff cells) suspended in 100 μl of IMDM medium (Iscove's Modified Dulbecco's Medium) were administered under the hepatic capsule of the left lateral lobe of the female rats, by slow injection over the course of approximately 50 seconds. […]
The plasma doxorubicin assay was carried out in the heparinized rat plasma by high performance liquid chromatography (or HPLC), the chromatograph being equipped with a fluorescence detector. […] 10 μl of the extract were analyzed by reverse-phase HPLC on a Zorbax 300SB-C18 4.6×150 mm, 3.5 μm column (with a Zorbax 300SB-C18 4.6×12.5 mm, 5 μm precolumn) and fluorimetric detection (excitation wavelength 480 nm, emission wavelength 560 nm).
The analysis was carried out over the course of 30 minutes with a 5 mM ammonium acetate, pH 3.5/acetonitrile gradient. […] When the area of the HPLC peak was greater than the upper limit of quantification, 5 μl were injected instead of 10 μl in order to obtain an area of doxorubicin included in the range. […]

[2] = Plasma kinetics of doxorubicin after TACE, VX2 rabbits; assay type: in vivo, New Zealand rabbits; conditions: intra-arterial injection 300 μl, mean (±SD)
Experimental: The tumor induction method described by Hong et al. (Clin Cancer Res 2006; 12 (8): 2563-2567) was used on New Zealand rabbits (NZ; supplier Charles River, France), anesthetized beforehand.
Fragments of VX2 tumor tissues are implanted (a fragment of 25 mg/per liver of NZ rabbit) under the hepatic capsule of the left lateral lobe of the rabbits. These rabbits with a tumor in the left hepatic lobe will subsequently be referred to as “VX2 rabbits”.
19 days after having carried out the tumor induction method, the TACE is carried out. Thus, the products (volume: 300 μl) are injected into the pre-anesthetized animals, using a catheter guided by fluoroscopy (X-ray imaging) via the femoral artery and brought up to the artery feeding the hepatic tumor (injection only where selectivity has been achieved). The TACE is carried out in a dedicated room and under conditions close to clinical practice (interventional radiology).
Blood samples of 300 μl at times 0, 5, 15, 30 or 45 minutes after intra-arterial injection were taken after catheterization of the ear vein. 200 μl of plasma after centrifugation were then recovered and heparinized for assaying the anti-cancer agent. A study of the plasma kinetics of the anti-cancer agent was thus carried out.
The plasma doxorubicin assay was carried out in the heparinized plasma of VX2 rabbits under the same conditions as those described above. […]

[3] = Visual stability (phase separation) of the emulsion; assay type: physicochemical; conditions: comparative emulsions not in accordance with the invention
Experimental: The emulsion according to the invention is advantageously stable. The term “stable emulsion” is intended to mean an emulsion having, under conventional temperature (20° C.) and atmospheric pressure (1 bar) conditions and within 24 hours following its preparation, a visual phase separation of less than 5% by volume relative to the total composition in emulsion form. […] Visual phase separation manifests itself when a solution no longer appears uniform to the eye, i.e. when the appearance of at least two phases is observed.

| concentration at 45 min ([1]; 45 min after intra-arterial injection, read-out: Plasma doxorubicin concentration at 45 min) [ng/mL] | concentration at 5 min ([1]; intra-arterial injection 100 μl, 0.5 mg anti-cancer agent, average) [ng/mL] | concentration at 5 min ([2]; New Zealand, rabbit, plasma, read-out: Plasma concentration of the anti-cancer agent 5 minutes after injection) [ng/mL] | Plasma concentration of the anti-cancer agent 5 minutes after injection ([2]; listed as Control doxorubicin alone given IA) [ng/mL] | Compound | Observations: phase separation / stability [3] |
| --- | --- | --- | --- | --- | --- |
| 112 | 2450 | 563 ± 282 | 563 ± 282 | COc1cccc2c1C(=O)c1c(O)c3c(c(O)c1C2=O)C[C@@](O)(C(=O)CO)C[C@@H]3O[C@H]1C[C@H](N)[C@H](O)[C@H](C)O1 [Control doxorubicin alone, doxorubicin] | – |
| – | – | – | – | Span® 20 | underwent phase separation immediately after they were prepared |
| – | – | – | – | Span® 83 | underwent phase separation immediately after they were prepared |
| – | – | – | – | Span® 85 | underwent phase separation immediately after they were prepared |
